What was measured:
[1] = test system: Peripheral blood mononuclear cells (PBMC); assay: Respiratory burst, H2O2 production by DCFH-DA flow cytometry; assay type: cell-based; settings: 10 μg/mL or 1 μg/mL, added at the same time as the test compounds
Experimental: Experiments were also carried out using 2′,7′-dichlorofluorescein diacetate (DCFH-DA) to measure the production of H2O2.(J P Robinson, Oxidative burst methods, in Handbook of Flow Cytometry Methods, Wiley-Liss Inc, pp 147-149, 1993). H2O2 oxidizes the non-fluorescent probe (DCFH-DA) to a fluorescent probe that can then be detected by a flow cytometer. Peripheral blood mononuclear cells (PBMC) were extracted from a donor blood sample by lysis of heparinized blood and used in a suspension of 1×10^6/mL of phosphate buffer, pH 7.3. The cells were then incubated, with DCFH-DA (1 μL/mL of 20 mM stock) for 15 minutes to allow it to be taken up and trapped by hydrolysis with cellular esterases. The cells were then stimulated by test compounds for 15 min at 37° C. Controls included in the experiment were unloaded control (cells with no DCFH-DA) and loaded control (cells with DCFH-DA, but no stimulation). These were used to monitor the non-specific oxidation of unstimulated cells. The cells were then analyzed on the flow cytometer (excitation at 488 nm, emission at 525±20 nm), gating each sample for individual cell populations—granulocytes, monocytes and lymphocytes (Table 3).

[2] = test system: phorbol ester binding site of PKC; assay: [3H]-phorbol dibutyrate competition assay on rat brain homogenate; settings: co-incubation
Experimental: A competition assay was performed to determine whether the diterpene esters of the instant invention bind to the phorbol ester binding site of PKC. […] This binding was not blocked by co-incubation with bisindolylmaleimide.

rat brain PKC = assay: PKC kinase activity, PepTag Non-Radioactive Protein Kinase Kit; assay type: biochemical; settings: FIG. 1; TPA various dilutions (lanes 3, 4 and 5); ether extract at final dilution of 1 in 5 relative to the sap; crude sap and aqueous layer diluted 1/25
Experimental: The kinase activity of rat brain PKC (Promega) was determined using the Peptag™ Non-Radioactive Protein Kinase Kit (Promega). Using agarose gel electrophoresis the technique visualises the opposing electrostatic charge of a fluorescently labeled peptide ([sequence]) compared to the phosphorylated version of the same peptide.
The reaction mixture was separated by gel electrophoresis, showing migration of the unreacted substrate (a) to the anode (top), and the product (b), which is more negatively charged because of phosphorylation by PKC, moving towards the cathode (bottom).

PKCα = target: T1, PKCα (Homo sapiens, UniProt P17252); assay type: cell-based; settings: HeLa, one hour; for PKCα translocation from the cytoplasm to the plasma membrane: TPA 100 ng/mL, bryostatin-1 5 pg/mL, PEP003 2.25 μg/mL (5 μM), PEP005 (1.5 μM)
T1 construct: host or cells: HeLa cells
Experimental: (§1) Five EGFP-PKC isoforms (Clontech) were available for this experiment, enabling the screening of the three predominant PKC families (i.e. classical, novel and a typical PKCs). The members of the various PKC families are α, β, and γ (classical), θ (novel) and ζ (atypical).
(§2) HeLa cells were plated out in a 24-well plate containing coverslips and transfected with PKC isoforms fused to EGFP, using a commercially available effectine-transfection kit (QIAGEN, Pty. Ltd.). Cells were exposed to the transfection reagents for 16-24 hr. Subsequently, transfected cells were treated for one hour with TPA (100 ng/mL), bryostatin-1 (5 pg/mL), PEP003 (2.25 μg/mL; 5 μM) or PEP005 ([…]) 1.5 μM). Following treatment, cells were fixed on coverslips and mounted on glass slides. The slides were subsequently examined visually by fluorescence microscopy, photographed, and over 150 cells were counted/treatment/PKC isoform. Counted cells were classified according to the localisation of the PKC-EGFP fluorescence as either cytoplasmic or plasma membrane using ImagePro™ 4.1 (FIG. 5). […] The number of these cells was also counted.

PKCβ = target: T2, PKCβ (Homo sapiens, UniProt P05771); assay: EGFP-PKC isoform translocation in HeLa cells; assay type: cell-based; settings: one hour; for PKCβ translocation from the cytoplasm to the plasma membrane: TPA 100 ng/mL, bryostatin-1 5 pg/mL, PEP003 2.25 μg/mL (5 μM), PEP005 670 μg/mL (1.5 μM)
T2 construct: host or cells: HeLa cells
T2 sequence (P05771 whole entry, species assumed, canonical isoform): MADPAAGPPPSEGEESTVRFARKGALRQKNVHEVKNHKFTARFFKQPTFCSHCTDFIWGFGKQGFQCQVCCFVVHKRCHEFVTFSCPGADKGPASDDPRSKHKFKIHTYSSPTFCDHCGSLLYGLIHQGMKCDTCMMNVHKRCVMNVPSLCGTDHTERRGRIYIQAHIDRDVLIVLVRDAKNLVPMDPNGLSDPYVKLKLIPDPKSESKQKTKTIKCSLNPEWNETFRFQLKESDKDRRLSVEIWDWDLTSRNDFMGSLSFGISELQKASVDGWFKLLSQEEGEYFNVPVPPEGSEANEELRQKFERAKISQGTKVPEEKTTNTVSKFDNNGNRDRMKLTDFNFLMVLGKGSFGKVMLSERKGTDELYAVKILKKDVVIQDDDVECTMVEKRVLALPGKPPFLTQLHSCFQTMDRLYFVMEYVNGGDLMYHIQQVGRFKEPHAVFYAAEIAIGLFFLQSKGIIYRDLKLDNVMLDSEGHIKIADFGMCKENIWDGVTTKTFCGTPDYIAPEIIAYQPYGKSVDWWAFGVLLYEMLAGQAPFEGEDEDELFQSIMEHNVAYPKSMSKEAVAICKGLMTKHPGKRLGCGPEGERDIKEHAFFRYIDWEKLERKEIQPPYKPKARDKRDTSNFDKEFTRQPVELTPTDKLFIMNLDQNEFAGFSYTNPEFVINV
Experimental: as §1
as §2, with “counted. Results are presented as an average and standard deviation of percentages of cells (Table 1).” for “counted.”

PKCζ = target: T3, PKCζ (Homo sapiens, UniProt Q05513); assay: EGFP-PKC isoform translocation in HeLa cells; assay type: cell-based; settings: one hour, TPA 100 ng/mL, bryostatin-1 5 pg/mL, PEP003 2.25 μg/mL (5 μM), PEP005 670 μg/mL (1.5 μM)
T3 construct: host or cells: HeLa cells
T3 sequence (Q05513 1-592): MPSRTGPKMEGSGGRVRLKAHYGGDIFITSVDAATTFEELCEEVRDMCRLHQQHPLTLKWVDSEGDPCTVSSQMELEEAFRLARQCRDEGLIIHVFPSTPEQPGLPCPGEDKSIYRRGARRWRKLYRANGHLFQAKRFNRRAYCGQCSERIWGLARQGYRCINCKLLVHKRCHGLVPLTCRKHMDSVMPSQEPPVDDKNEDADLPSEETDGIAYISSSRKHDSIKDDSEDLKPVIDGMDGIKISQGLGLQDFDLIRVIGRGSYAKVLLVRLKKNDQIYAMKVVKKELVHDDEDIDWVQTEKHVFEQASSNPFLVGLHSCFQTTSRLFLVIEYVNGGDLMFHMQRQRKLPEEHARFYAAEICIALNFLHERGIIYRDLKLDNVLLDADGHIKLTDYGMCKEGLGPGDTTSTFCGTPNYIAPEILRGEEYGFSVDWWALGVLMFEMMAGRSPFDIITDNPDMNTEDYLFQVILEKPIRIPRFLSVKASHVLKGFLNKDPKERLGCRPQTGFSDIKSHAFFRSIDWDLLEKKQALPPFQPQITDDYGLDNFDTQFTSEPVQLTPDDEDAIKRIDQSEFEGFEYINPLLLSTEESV
Experimental: as §1
as §2, with “counted. Results are presented as an average and standard deviation of percentages of cells (Table 1).” for “counted.”

PKCθ = target: T4, PKCθ (Homo sapiens, UniProt Q04759); assay: EGFP-PKC isoform translocation in HeLa cells; assay type: cell-based; settings: one hour, TPA 100 ng/mL, bryostatin-1 5 pg/mL, PEP003 2.25 μg/mL (5 μM)
T4 construct: host or cells: HeLa cells
T4 sequence (Q04759 whole entry, canonical isoform): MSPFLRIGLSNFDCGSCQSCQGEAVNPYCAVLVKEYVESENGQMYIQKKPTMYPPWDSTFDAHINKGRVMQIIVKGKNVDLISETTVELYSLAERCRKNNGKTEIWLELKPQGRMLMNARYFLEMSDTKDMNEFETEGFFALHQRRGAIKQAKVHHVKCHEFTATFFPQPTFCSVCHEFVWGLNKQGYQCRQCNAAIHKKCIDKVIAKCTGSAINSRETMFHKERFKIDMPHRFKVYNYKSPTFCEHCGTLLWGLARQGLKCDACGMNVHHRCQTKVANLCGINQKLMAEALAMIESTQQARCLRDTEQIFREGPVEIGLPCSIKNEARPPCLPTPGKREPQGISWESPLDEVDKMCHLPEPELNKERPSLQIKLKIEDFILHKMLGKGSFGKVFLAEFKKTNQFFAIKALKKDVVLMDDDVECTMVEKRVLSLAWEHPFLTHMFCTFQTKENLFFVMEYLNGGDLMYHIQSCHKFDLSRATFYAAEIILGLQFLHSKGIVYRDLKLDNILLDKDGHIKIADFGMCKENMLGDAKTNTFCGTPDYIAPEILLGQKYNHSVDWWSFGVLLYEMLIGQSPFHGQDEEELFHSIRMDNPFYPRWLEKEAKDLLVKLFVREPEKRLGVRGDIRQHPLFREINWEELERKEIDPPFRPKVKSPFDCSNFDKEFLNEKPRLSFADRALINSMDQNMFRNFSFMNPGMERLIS
Experimental: as §1
as §2, with “counted. Results are presented as an average and standard deviation of percentages of cells (Table 1).” for “counted.”

[3] = test system: peripheral blood mononuclear cells (PBMCs); assay: Phagocytosis with fluorescent beads; assay type: cell-based; settings: whole heparinized blood, 30 min at 37° C.
Experimental: Phagocytosis by peripheral blood mononuclear cells (PBMCs) was assayed (Steinkamp et al., 1982) using 1 μm Fluoresbrite™ yellow-green fluorescent latex spheres (Polysciences, Inc., Warrington, Pa.). A sample of whole, heparinized blood was treated with drug and 5×10E7 fluorescent latex beads in 10 μL of PBS added per mL of suspension. Cells were incubated and maintained in suspension for 30 min by means of a shaker platform at 37° C. The stimulated and non-stimulated samples were then lysed to isolate PBMCs. The PBMCs were run on the flow cytometer measuring FITC (excitation at 488 nm, emission at 525±20 nm), gated for fluorescence (phagocytosed spheres) and light scatter (cell size).

PKCγ = target: T5, PKCγ (Homo sapiens, UniProt P05129); assay: EGFP-PKC isoform translocation in HeLa cells; assay type: cell-based; settings: one hour; for PKCγ translocation from the cytoplasm to the plasma membrane: TPA 100 ng/mL, bryostatin-1 5 pg/mL, PEP003 2.25 μg/mL (5 μM), PEP005 670 μg/mL (1.5 μM)
T5 construct: host or cells: HeLa cells
Experimental: as §1
as §2, with “counted. Results are presented as an average and standard deviation of percentages of cells (Table 1).” for “counted.”

adenovirus 5 = assay: Adenovirus replication in human melanoma cells (immunohistochemical detection); assay type: cell-based; settings: 295 ng/mL; 2 days
From the text: Human melanoma cells were infected with ten-fold dilutions of adenovirus 5 in culture, treated with dilutions of PEP005, PEP006, PEP008 and PEP010 and adenovirus replication determined 2 days later by immunhistochemical detection of virus-replicating cells.

CMV promoter = settings: Christenson et al., 1999; cited from earlier work
[4] = test system: latently HIV-1 infected cell line (U1); assay: Activation of latent HIV from U1 cells (p24 ELISA); assay type: cell-based, HIV-1 LAI strain; settings: 20 hr culture
From the text: A latently HIV-1 infected cell line (U1), derived from the promonocytic cell line U937 after infection with HIV-1 LAI strain, was used in these experiments. In the absence of activation, no or little virus (measured as p24 production) is produced by the U1 cell line. Phorbol esters are known to activate virus production from these cells (Tobiume et al., 1998) and so TPA/PMA was used as a positive control in these experiments.
Supernatants were collected and viral replication monitored by determination of the amounts of HIV p24 gag protein in the culture supernatants by ELISA, using a NEN Life Science HIV-1 p24 ELISA kit. p24 values were calculated from OD values using a standard curve.

[5] = test system: Burkitt's lymphoma cell lines (MutuI and BL74); assay: EBV activation, VCA on western blots, Burkitt's lymphoma cell lines; assay type: cell-based
Experimental: Initially the effect of PEP003 and PEP004 was tested on the B95-8 cell line (an EBV positive marmoset cell line that is used worldwide as one of the best EBV producers). This cell line was treated with each of these compounds (at different concentrations) for 3 days and 7 days, respectively, and activation of EBV virus production was measured by the appearance of a viral capsid antigen (VCA) on western blots. Also, as a comparison, EBV was activated in this cell line with TPA.
To ensure that equal amounts of each sample were analyzed, the gels were stained with Coomassie blue and the loadings were adjusted to make them equal. […] Next the PEP003 and PEP004 were assayed on two Burkitt's lymphoma cell lines and an LCL. This time only concentrations of 10^−5 and 10^−7 were used.

latent HIV in monocytes = settings: Tobiume et al., 1998; cited from earlier work

Molecule	activation of PKC (rat brain PKC)	PKCα translocation from the cytoplasm to the plasma membrane (PKCα)	number of PKCβ transfected cells with Golgi-like fluorescence (PKCβ)	PKCβ translocation from the cytoplasm to the plasma membrane (PKCβ)	PKCζ translocation (PKCζ)	PKCθ translocation (PKCθ)	phagocytosis of fluorescent latex spheres in PBMCs [3]	number of PKCα transfected cells displaying Golgi-like fluorescence (PKCα)	number of PKCγ transfected cells displaying Golgi-like fluorescence (PKCγ)	PKCγ translocation from the cytoplasm to the plasma membrane (PKCγ)	also measured
bisindolylmaleimide	–	–	–	–	–	–	–	–	–	–	effect of PKC inhibitor on the respiratory burst seen with TPA and PEP003 [1]: blocked the respiratory burst; binds to the phorbol ester binding site of PKC [2]: does not
phosphatidyl serine	strong activation	–	–	–	–	–	–	–	–	–	–
CCC/C=C/C=C/C(=O)O[C@H]1/C(=C/C(=O)OC)C[C@H]2C[C@H]([C@@H](C)O)OC(=O)C[C@H](O)C[C@@H]3C[C@H](OC(C)=O)C(C)(C)[C@](O)(C[C@@H]4C/C(=C/C(=O)OC)C[C@H](/C=C/C(C)(C)[C@]1(O)O2)O4)O3 [bryostatin-1]	–	not with bryostatin-1	decreases the number of cells with PKCβ concentrated in the Golgi	not with bryostatin-1	fail to induce translocation of PKCζ	translocated	–	–	–	–	–
C/C=C(/C)C(=O)O[C@H]1C(C)=C[C@]23C(=O)[C@@H](C=C(CO)[C@@H](O)[C@]12O)[C@H]1[C@@H](C[C@H]3C)C1(C)C [PEP005, Ingenol-3-angelate]	–	translocated from the cytoplasm to the plasma membrane	decreases the number of cells with PKCβ concentrated in the Golgi	translocated from the cytoplasm to the plasma membrane	fail to induce translocation of PKCζ	does not induce any change in the isoenzymes localization	stimulate phagocytosis	increase in the number of cells displaying Golgi-like fluorescence	increase in the number of cells displaying Golgi-like fluorescence	translocated from the cytoplasm to the plasma membrane	–
C/C=C(/C)C(=O)O[C@H]1C(C)=C[C@]23C(=O)[C@H](C=C(C)[C@@H](O)[C@]12O)[C@H]1[C@@H](C[C@H]3C)C1(C)C [PEP006, 20-deoxy-ingenol-3-angelate]	–	–	–	–	–	–	stimulate phagocytosis	–	–	–	increase of adenovirus replication (number of stained cells) (adenovirus 5): 256%
CCCCCCCCCCCCCC(=O)O[C@@H]1[C@@H](C)[C@@]2(O)[C@@H](C=C(CO)C[C@]3(O)C(=O)C(C)=C[C@@H]23)[C@@H]2C(C)(C)[C@]12OC(C)=O [TPA]	showed activation of PKC	translocated from the cytoplasm to the plasma membrane	increase in Golgi-like fluorescence	translocated from the cytoplasm to the plasma membrane	fail to induce translocation of PKCζ	translocated	stimulate phagocytosis	increase in the number of cells displaying Golgi-like fluorescence	increase in the number of cells displaying Golgi-like fluorescence	translocated from the cytoplasm to the plasma membrane	increase of CMV promoter transcriptional activity (CMV promoter): increase this activity; activation of HIV from U1 cells (p24 production) [4]: activated HIV from U1 cells; induction of VCA in MutuI cells [5]: did not; activation of latent HIV in monocytes (latent HIV in monocytes): activate latent HIV in monocytes

Source: US7449492B2, “Therapeutic agents—I” (priority 2000, dated 2008)
